Test results taken from ChEMBL document CHEMBL1649327, “In vitro antimicrobial activity and mutant prevention concentration of colistin against Acinetobacter baumannii” (Antimicrob Agents Chemother, 2010).
Converted amounts (≈) assume the structure as drawn.

Tests used:
Acinetobacter baumannii [1] = assay: Antimicrobial activity against Acinetobacter baumannii by broth dilution method; format: functional
Acinetobacter baumannii [2] = assay: Antimicrobial activity against Acinetobacter baumannii assessed as susceptible isolate by broth dilution method; format: functional
Acinetobacter baumannii [3] = assay: Antimicrobial activity against Acinetobacter baumannii assessed as resistant isolate by broth dilution method; format: functional
Homo sapiens [4] = assay: Cmax in patient at 225 mg, iv every 8 hrs for 2 days; format: ADME, organism-based; set-up: dose 225 mg, route intravenous; settings: in vivo
Homo sapiens [5] = assay: Cmax in patient at 225 mg, iv every 12 hrs for 2 days; format: ADME, organism-based; set-up: dose 225 mg, route intravenous; settings: in vivo
Acinetobacter baumannii [6] = assay: Antimicrobial activity against Acinetobacter baumannii assessed as resistant isolate by broth dilution method in presence of beta-lactamase inhibitor Sulbactam; format: functional
Acinetobacter baumannii [7] = assay: Antimicrobial activity against Acinetobacter baumannii assessed as susceptible isolate by broth dilution method in presence of beta-lactamase inhibitor Sulbactam; format: functional
Acinetobacter baumannii [8] = assay: Antimicrobial activity against Acinetobacter baumannii by broth dilution method in presence of beta-lactamase inhibitor Sulbactam; format: functional
Acinetobacter baumannii [9] = assay: Antimicrobial activity against Acinetobacter baumannii assessed as resistant isolate by broth dilution method in presence of cilastatin; format: functional
Acinetobacter baumannii [10] = assay: Antimicrobial activity against Acinetobacter baumannii assessed as susceptible isolate by broth dilution method in presence of cilastatin; format: functional
Acinetobacter baumannii [11] = assay: Antimicrobial activity against Acinetobacter baumannii by broth dilution method in presence of cilastatin; format: functional
Acinetobacter baumannii [12] = assay: Ratio of mutant prevention concentration for Acinetobacter baumannii to MIC for Acinetobacter baumannii; format: functional, organism-based
Acinetobacter baumannii [13] = assay: Antimicrobial activity against Acinetobacter baumannii assessed as mutant prevention concentration; format: functional, organism-based
Acinetobacter baumannii [14] = assay: Antimicrobial activity against Acinetobacter baumannii assessed as mutant prevention concentration require for 90% of isolates; format: functional, organism-based

Molecule | MIC50 (Acinetobacter baumannii [1]) [µg/mL] | MIC90 (Acinetobacter baumannii [1]) [µg/mL] | Activity (Acinetobacter baumannii [2]) [%] | Activity (Acinetobacter baumannii [3]) [%] | also measured
NCC[C@H](O)C(=O)N[C@@H]1C[C@H](N)[C@@H](O[C@H]2O[C@H](CN)[C@@H](O)[C@H](O)[C@H]2O)[C@H](O)[C@H]1O[C@H]1O[C@H](CO)[C@@H](O)[C@H](N)[C@H]1O [AMIKACIN] | > 128 | > 128 | 28.6 | 71.4 | 
C[C@@H](O)[C@H]1C(=O)N2C(C(=O)O)=C(S[C@@H]3CN[C@H](C(=O)N(C)C)C3)[C@H](C)[C@H]12 [MEROPENEM] | 32 (≈ 83.4 µM) | 64 (≈ 167 µM) | 22.9 | 77.1 | 
COLISTIN [listing 1 of 2 here] |  |  |  |  | Cmax (Homo sapiens [4]): 2930 ng/mL; Cmax (Homo sapiens [5]): 2930 ng/mL
C[C@H]1COc2c(N3CCN(C)CC3)c(F)cc3c(=O)c(C(=O)O)cn1c23.C[C@H]1COc2c(N3CCN(C)CC3)c(F)cc3c(=O)c(C(=O)O)cn1c23.O [LEVOFLOXACIN] | 4 | 16 | 38.6 | 32.8 | 
O=C(O)c1cn(C2CC2)c2cc(N3CCNCC3)c(F)cc2c1=O [CIPROFLOXACIN] |  |  | 15.7 | 82.9 | 
CCN1CCN(C(=O)N[C@@H](C(=O)N[C@@H]2C(=O)N3C(C(=O)O)=C(CSc4nnnn4C)CS[C@H]23)c2ccc(O)cc2)C(=O)C1=O [CEFOPERAZONE] |  |  |  |  | Activity (Acinetobacter baumannii [6]): 81.4%; Activity (Acinetobacter baumannii [7]): 17.2%; MIC50 (Acinetobacter baumannii [8]): > 128 µg/mL; MIC90 (Acinetobacter baumannii [8]): > 128 µg/mL
C[C@@H](O)[C@H]1C(=O)N2C(C(=O)O)=C(SCCNC=N)C[C@H]12 [IMIPENEM ANHYDROUS] |  |  |  |  | Activity (Acinetobacter baumannii [9]): 75.7%; Activity (Acinetobacter baumannii [10]): 21.4%; MIC50 (Acinetobacter baumannii [11]): 16 µg/mL; MIC90 (Acinetobacter baumannii [11]): 128 µg/mL
CCN[C@@H]1C[C@H](N)[C@@H](O[C@H]2OC(CN)=CC[C@H]2N)[C@H](O)[C@H]1O[C@H]1OC[C@](C)(O)[C@H](NC)[C@H]1O [NETILMICIN] | > 128 | > 128 | 20 | 75.7 | 
CC(C)(O/N=C(\C(=O)N[C@@H]1C(=O)N2C(C(=O)[O-])=C(C[n+]3ccccc3)CS[C@H]12)c1csc(N)n1)C(=O)O [CEFTAZIDIME] | > 128 | > 128 | 17.2 | 77.1 | 
CC1(C)S[C@@H]2[C@H](NC(=O)[C@H](N)c3ccccc3)C(=O)N2[C@H]1C(=O)O [AMPICILLIN] |  |  |  |  | Activity (Acinetobacter baumannii [6]): 81.4%; MIC50 (Acinetobacter baumannii [8]): 128 µg/mL; MIC90 (Acinetobacter baumannii [8]): > 128 µg/mL
CCN1CCN(C(=O)N[C@@H](C(=O)N[C@@H]2C(=O)N3[C@@H]2SC(C)(C)[C@@H]3C(=O)O)c2ccccc2)C(=O)C1=O [PIPERACILLIN] | 128 (≈ 247 µM) | > 128 | 10 | 82.9 | Activity (Acinetobacter baumannii [6]): 71.4%; Activity (Acinetobacter baumannii [7]): 17.2%; MIC50 (Acinetobacter baumannii [8]): > 128 µg/mL; MIC90 (Acinetobacter baumannii [8]): > 128 µg/mL
CO/N=C(\C(=O)N[C@@H]1C(=O)N2C(C(=O)[O-])=C(C[N+]3(C)CCCC3)CS[C@H]12)c1csc(N)n1 |  |  | 15.7 | 81.4 | 
COLISTIN [listing 2 of 2 here] | 1 | 1 | 100 | 0 | Ratio (Acinetobacter baumannii [12]): 128; MPC (Acinetobacter baumannii [13]): > 128 µg/mL; MPC (Acinetobacter baumannii [14]): > 128 µg/mL
